Target: PRMT5/MEP50 (Homo sapiens (Human), UniProt O14744)
Test: PRMT5 Biochemical Assay (PRMT5/MEP50 enzyme assay on peptide substrate, 3H-SAM Flashplate)
How it was run: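 FLAG-PRMT5/His-MEP50 from Sf9 cells, 4 nM, with 40 nM biotinylated H4(1-15) peptide and 75 nM 3H-SAM in 20 mM Bicine pH 7.6, 1% DMSO; compound preincubated 30 min at 25 °C. Stopped with 600 uM cold SAM; 3H-peptide captured on streptavidin Flashplate, counted; % inhibition versus DMSO and 100 uM SAH controls, IC50 by 3- or 4-parameter fit.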

Chain of PRMT5/MEP50 (O14744 other isoform, or with tags, fused parts or gaps): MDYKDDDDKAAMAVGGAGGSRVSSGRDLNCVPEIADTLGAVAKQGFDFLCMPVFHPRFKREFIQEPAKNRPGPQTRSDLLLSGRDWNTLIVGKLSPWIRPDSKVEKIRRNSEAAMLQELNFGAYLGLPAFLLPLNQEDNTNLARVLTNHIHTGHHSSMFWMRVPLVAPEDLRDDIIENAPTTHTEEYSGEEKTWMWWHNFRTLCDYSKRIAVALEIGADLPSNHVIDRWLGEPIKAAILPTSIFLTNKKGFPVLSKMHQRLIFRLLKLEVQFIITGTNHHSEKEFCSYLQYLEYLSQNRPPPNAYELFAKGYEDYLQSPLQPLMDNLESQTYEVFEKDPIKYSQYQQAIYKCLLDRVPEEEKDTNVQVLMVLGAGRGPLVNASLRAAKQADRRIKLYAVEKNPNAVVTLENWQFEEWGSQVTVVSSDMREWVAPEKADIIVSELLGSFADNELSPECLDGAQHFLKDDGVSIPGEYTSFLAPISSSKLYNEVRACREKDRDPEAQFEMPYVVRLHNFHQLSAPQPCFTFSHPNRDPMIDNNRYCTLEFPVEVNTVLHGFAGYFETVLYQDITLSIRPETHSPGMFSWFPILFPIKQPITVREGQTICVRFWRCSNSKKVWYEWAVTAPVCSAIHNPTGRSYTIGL
Chain of PRMT5/MEP50 (Q9BQA1 other isoform, or with tags, fused parts or gaps partner): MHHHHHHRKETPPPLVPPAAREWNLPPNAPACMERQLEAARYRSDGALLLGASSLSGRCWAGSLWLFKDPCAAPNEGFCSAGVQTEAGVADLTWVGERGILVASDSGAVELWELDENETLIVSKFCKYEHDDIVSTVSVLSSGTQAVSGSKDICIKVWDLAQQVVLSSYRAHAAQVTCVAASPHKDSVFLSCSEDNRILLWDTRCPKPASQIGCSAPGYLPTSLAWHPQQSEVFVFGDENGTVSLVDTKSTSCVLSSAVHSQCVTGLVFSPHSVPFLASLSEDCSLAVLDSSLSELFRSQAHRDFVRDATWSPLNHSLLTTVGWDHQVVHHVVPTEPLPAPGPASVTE

Compound	IC50 [nM]
N-(3-(3-(3,4-dihydroisoquinolin-2(1H)-yl)-2-hydroxypropoxy)phenyl)pyrimidine-5-carboxamide [Compound 145]	101 to 1000
OC(COc1cccc(-c2ccc3cn[nH]c3c2)c1)CN1CCc2ccccc2C1 (centres unmarked) [Compound 58, 1-(3-(1H-indazol-6-yl)phenoxy)-3-(3,4-dihydroisoquinolin-2(1H)-yl)propan-2-ol]	101 to 1000

Reference: patent US9777008B2, “PRMT5 inhibitors and uses thereof” (Epizyme, Inc., priority 2012, dated 2017)
